Measurements reported in article PMC7930822, “Phase I Trial to Evaluate the Tolerance, Pharmacokinetics and Efficacy of the Broad-Spectrum ErbB Family Inhibitor Larotinib Mesylate in Patients With Advanced Solid Tumors” (Frontiers in Pharmacology, 2021).
pIC50: −log10 of the molar value. Where a name gives a salt, the structure may show the parent alone.

Legend:
tumor-bearing mice = experiment: preclinical pharmacodynamic study in tumor-bearing mice; format: in vivo; details: from effective dose of 18 mg/kg in tumor-bearing mice, by body surface area
Method: Animal toxicology studies of larotinib mesylate were conducted in both Sprague–Dawley rats and beagle dogs. […] The maximal tolerable doses (MTDs) were 20 and 25 mg/kg in Sprague–Dawley rats and beagle dogs, respectively.
According to the guidance for clinical trials of antitumor agents published by the Center for Drug Evaluation and Research in China, for cytotoxic antitumor agents, the initial dose in a phase I study can be calculated as 1/10 of the MTD in rodents or 1/6 of the MTD in non-rodent animals ([CFDA, 2012]). For non-cytotoxic antitumor agents, because of their relatively lower toxicity, the initial dose can be set higher. According to the reported preclinical results for larotinib mesylate, the MTD in Sprague–Dawley rats translated to a human equivalent dose of 192 mg/d according to body surface area (calculated by 60 kg body weight), for which 1/10 is 19.2 mg/d ([FDA, 2005]). […] Taking the above results for the toxicology, preclinical pharmacology and pharmacodynamics, and drug specifications (10, 50 and 100 mg) of larotinib mesylate into account, we calculated a recommended starting dose of 50 mg larotinib mesylate for a phase I, first-in-human clinical study, lower than human equivalent 1/6 MTD translated from beagle dogs and near the human equivalent effective dose translated from tumor-bearing mice. […]

HER2 = tested on: HER2; set-up: method as in data not published; details: ref data not published; cited from earlier work

For `COc1cc2ncnc(Nc3ccc(F)c(Cl)c3)c2cc1OCCCN1C[C@@H]2OCCO[C@@H]2C1` [larotinib mesylate], the “human equivalent effective dose” value (tumor-bearing mice) is given as 86.4 mg/day and the pIC50 (HER2) is given as 6.60.
